Calls of active or inactive are those of the source. No cut-off for these calls is given here.
What was measured:
[1] = target: T1, Protoporphyrinogen oxidase, chloroplastic (Nicotiana tabacum) (UniProt O24163); assay: Inhibition of Galium aparine protoporphyrinogen oxidase by post-emergence herbicidal activity assay
T1 sequence (whole entry): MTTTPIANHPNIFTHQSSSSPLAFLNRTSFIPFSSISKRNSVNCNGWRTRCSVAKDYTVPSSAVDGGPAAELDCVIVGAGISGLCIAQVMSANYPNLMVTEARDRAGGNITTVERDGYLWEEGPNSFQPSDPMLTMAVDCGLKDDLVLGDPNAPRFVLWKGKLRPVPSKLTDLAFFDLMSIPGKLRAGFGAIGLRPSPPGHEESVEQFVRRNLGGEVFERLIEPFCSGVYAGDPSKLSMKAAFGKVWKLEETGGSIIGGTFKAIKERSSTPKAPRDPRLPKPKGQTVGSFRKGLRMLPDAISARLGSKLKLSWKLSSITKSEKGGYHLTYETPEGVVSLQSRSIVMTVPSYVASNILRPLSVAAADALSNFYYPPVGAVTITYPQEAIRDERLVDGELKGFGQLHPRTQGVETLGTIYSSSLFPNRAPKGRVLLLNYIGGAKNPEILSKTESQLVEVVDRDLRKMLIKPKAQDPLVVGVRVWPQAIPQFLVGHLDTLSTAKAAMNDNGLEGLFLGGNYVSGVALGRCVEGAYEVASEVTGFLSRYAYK

[2] = target: T2, Protoporphyrinogen oxidase (Medicago truncatula) (UniProt G7L3C0); assay: Inhibition of Viola arvensis protoporphyrinogen oxidase by post-emergence herbicidal activity assay
T2 sequence (whole entry): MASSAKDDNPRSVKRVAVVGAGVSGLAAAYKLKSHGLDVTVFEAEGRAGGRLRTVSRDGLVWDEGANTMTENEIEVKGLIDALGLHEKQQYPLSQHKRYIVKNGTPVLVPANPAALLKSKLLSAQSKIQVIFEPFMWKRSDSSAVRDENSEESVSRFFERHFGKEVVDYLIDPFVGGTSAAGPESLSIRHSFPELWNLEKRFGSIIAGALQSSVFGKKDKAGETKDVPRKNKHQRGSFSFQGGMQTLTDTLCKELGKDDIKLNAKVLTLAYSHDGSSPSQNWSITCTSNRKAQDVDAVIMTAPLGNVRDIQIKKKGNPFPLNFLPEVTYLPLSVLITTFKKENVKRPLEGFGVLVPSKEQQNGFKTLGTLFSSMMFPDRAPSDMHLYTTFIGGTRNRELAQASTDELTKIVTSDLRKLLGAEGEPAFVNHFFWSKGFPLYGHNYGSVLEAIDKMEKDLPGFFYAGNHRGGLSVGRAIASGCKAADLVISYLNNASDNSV

[3] = target: T3, Protoporphyrinogen oxidase 2 (Spinacia oleracea) (UniProt Q94IG7); assay: Inhibition of Stellaria media protoporphyrinogen oxidase by post-emergence herbicidal activity assay
T3 sequence (whole entry): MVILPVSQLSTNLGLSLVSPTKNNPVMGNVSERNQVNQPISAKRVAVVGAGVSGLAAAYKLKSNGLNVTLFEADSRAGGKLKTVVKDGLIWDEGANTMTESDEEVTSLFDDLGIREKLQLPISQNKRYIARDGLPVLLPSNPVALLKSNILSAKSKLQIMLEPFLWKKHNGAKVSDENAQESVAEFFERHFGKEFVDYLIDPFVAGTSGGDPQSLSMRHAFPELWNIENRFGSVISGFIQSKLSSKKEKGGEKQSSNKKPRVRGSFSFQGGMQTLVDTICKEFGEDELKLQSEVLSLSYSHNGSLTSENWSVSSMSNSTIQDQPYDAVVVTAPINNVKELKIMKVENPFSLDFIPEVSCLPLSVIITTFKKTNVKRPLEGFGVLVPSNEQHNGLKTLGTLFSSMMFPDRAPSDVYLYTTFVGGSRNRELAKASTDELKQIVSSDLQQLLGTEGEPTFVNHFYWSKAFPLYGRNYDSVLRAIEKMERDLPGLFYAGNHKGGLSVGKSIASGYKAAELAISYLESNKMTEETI

[4] = target: T1, Protoporphyrinogen oxidase, chloroplastic (Nicotiana tabacum); assay: Inhibition of Veronica hederaefolia protoporphyrinogen oxidase by post-emergence herbicidal activity assay; details: Veronica hederifolia
[5] = target: T3, Protoporphyrinogen oxidase 2 (Spinacia oleracea); assay: Inhibition of Stellaria media protoporphyinogen oxidase assessed as herbicidal activity at 10 g/ha measured after 21 days after treatment under greenhouse by time-course analysis; design: scale not given: the % may be the effect or the level left
[6] = target: T4, Protoporphyrinogen IX oxidase (Cichorium intybus) (UniProt Q9SPL6); assay: Inhibition of Tripleurospermum maritimum subsp. inodorum protoporphyrinogen oxidase by post-emergence herbicidal activity assay
T4 sequence (whole entry): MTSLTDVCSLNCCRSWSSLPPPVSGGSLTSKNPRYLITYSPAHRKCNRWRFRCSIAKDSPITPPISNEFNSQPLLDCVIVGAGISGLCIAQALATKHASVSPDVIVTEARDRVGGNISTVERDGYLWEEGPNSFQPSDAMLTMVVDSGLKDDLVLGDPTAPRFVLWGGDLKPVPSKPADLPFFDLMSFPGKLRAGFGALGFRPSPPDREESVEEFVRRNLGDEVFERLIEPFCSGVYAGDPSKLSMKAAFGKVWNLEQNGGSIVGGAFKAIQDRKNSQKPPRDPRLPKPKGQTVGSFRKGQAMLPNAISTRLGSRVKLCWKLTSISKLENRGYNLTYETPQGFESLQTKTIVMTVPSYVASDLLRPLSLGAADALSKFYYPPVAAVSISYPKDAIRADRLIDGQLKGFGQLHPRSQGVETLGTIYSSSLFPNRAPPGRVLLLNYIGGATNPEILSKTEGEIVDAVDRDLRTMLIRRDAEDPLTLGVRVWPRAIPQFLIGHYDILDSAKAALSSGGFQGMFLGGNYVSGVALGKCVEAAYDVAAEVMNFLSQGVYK

[7] = target: T3, Protoporphyrinogen oxidase 2 (Spinacia oleracea); assay: Inhibition of Stellaria media protoporphyinogen oxidase assessed as herbicidal activity at 100 g/ha measured after 21 days after treatment under greenhouse by time-course analysis; design: scale not given: the % may be the effect or the level left
[8] = tested on: Viola arvensis; assay: Herbicidal activity against Viola arvensis assessed as killing measured after 21 days after treatment by post-emergence herbicidal activity assay; format: functional
[9] = tested on: Galium aparine; assay: Herbicidal activity against Galium aparine assessed as killing measured after 21 days after treatment by post-emergence herbicidal activity assay; format: functional
[10] = tested on: Stellaria media; assay: Herbicidal activity against Stellaria media assessed as killing measured after 21 days after treatment by post-emergence herbicidal activity assay; format: functional
[11] = tested on: Veronica hederifolia; assay: Herbicidal activity against Veronica hederaefolia assessed as killing measured after 21 days after treatment by post-emergence herbicidal activity assay; format: functional
[12] = target: T3, Protoporphyrinogen oxidase 2 (Spinacia oleracea); assay: Inhibition of Stellaria media protoporphyinogen oxidase assessed as herbicidal activity at 50 g/ha measured after 9 days after treatment under greenhouse by time-course analysis; design: scale not given: the % may be the effect or the level left
[13] = tested on: Tripleurospermum inodorum; assay: Herbicidal activity against Tripleurospermum maritimum subsp. inodorum assessed as killing measured after 21 days after treatment by post-emergence herbicidal activity assay; format: functional
[14] = target: T3, Protoporphyrinogen oxidase 2 (Spinacia oleracea); assay: Inhibition of Stellaria media protoporphyinogen oxidase assessed as herbicidal activity at 100 g/ha measured after 1 days after treatment under greenhouse by time-course analysis
[15] = target: T3, Protoporphyrinogen oxidase 2 (Spinacia oleracea); assay: Inhibition of Stellaria media protoporphyinogen oxidase assessed as herbicidal activity at 0.3 g/ha measured after 14 days after treatment under greenhouse by time-course analysis; design: scale not given: the % may be the effect or the level left

CCOC(=O)C(Cl)Cc1cc(-n2nc(C)n(C(F)F)c2=O)c(F)cc1Cl (stereo not given)
ED90 [1]: 1.5 gAi/ha | ED90 [2]: 5 gAi/ha | ED90 [3]: 10 gAi/ha | ED90 [4]: 1 gAi/ha | Activity [5]: > 90% | ED90 [6]: 1.5 gAi/ha

COC(=O)c1cc(Oc2ccc(Cl)cc2Cl)ccc1[N+](=O)[O-]
ED90 [1]: 50 gAi/ha | ED90 [2]: 20 gAi/ha | ED90 [3]: 100 gAi/ha | ED90 [4]: 30 gAi/ha | ED90 [6]: 15 gAi/ha | Activity [7]: < 90%

N#Cc1cc(I)c(O)c(I)c1 [IOXYNIL]
ED90 [8]: 50 gAi/ha | ED90 [9]: 100 gAi/ha | ED90 [10]: 50 gAi/ha | ED90 [11]: 50 gAi/ha | Activity [12]: 90% | ED90 [13]: 30 gAi/ha

Cc1cc(Cl)ccc1O[C@@H](C)C(=O)O [MECOPROP-P]
ED90 [8]: 1000 gAi/ha | ED90 [9]: 300 gAi/ha | Activity [14]: Active | ED90 [10]: 100 gAi/ha | ED90 [11]: 300 gAi/ha | ED90 [13]: 1000 gAi/ha

COC(=O)c1ccccc1S(=O)(=O)NC(=O)Nc1nc(C)nc(OC)n1 [METSULFURON-METHYL]
ED90 [8]: 5 gAi/ha | Activity [15]: 90% | ED90 [9]: >100 gAi/ha | ED90 [10]: 0.3 gAi/ha | ED90 [11]: 50 gAi/ha | ED90 [13]: 0.3 gAi/ha

Reference: ChEMBL document CHEMBL3044865, “Herbicidal Activity and Characteristics of Pyraflufen-ethyl for Controlling Broad-leaved Weeds in Cereals” (J Pestic Sci, 2002)
